We go through 22 molecules from PubChem BioAssay (NCI).

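Dose response: 5 concentrations. Exposure: 48 h. Format: 96-well plates. Endpoint: linear interpolation; highest concentration if not reached. GI50 is the concentration that inhibits growth by half. At the TGI there is no net growth.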

Common to all, as to test: inhibition of tumour cell growth, NCI panel, 48 h
Assay [1] relates to MDA-N.
Assay [2] deals with M19-MEL melanoma.
For assay [3], the system named is HOP-18 NSCLC.
Assay [4] has as its system LXFL 529 NSCLC.
Assay [5] deals with DMS 114 small cell lung.
In assay [6] the test system is KM20L2 colon.
In assay [7] the test system is DLD-1 colon.
Assay [8] concerns DMS 273 small cell lung.
Assay [9] deals with RXF-631 renal.

As for `Clc1ccc(C(c2ccc(Cl)cc2)N2CCNCC2)cc1`, the TGI in [1] stood at 3.62 µM.

In the case of `Nc1nc(NC2C=C(CO)C(O)C2O)c([N+](=O)[O-])c(=O)[nH]1` (stereo not drawn), the TGI in [2], in assay [3], in [4], in [5], in [6] and in assay [7] was over 100 µM each time. This molecule gave a TGI in assay [8] of over 100 µM.

Take `Clc1cccc(N2CCN(CCN3CCc4c([nH]c5ccccc45)C3c3cccnc3)CC2)c1` (stereo not drawn): the TGI in [2] was over 100 µM; in assay [3] it was over 100 µM; in assay [4] it was over 100 µM; in assay [5] it was over 100 µM; in assay [1], over 100 µM; in assay [6], 77.8 µM. Moreover, the TGI in assay [7] and in assay [8] was over 100 µM each time.

Take `NC(CC(=O)Nc1ccc(Cl)cc1)=Nc1ccccc1`: the TGI in [2], in assay [4], in [6], in assay [7] and in assay [8] was over 100 µM in each case.

Regarding `CCCCCCCC(=O)OCC1OC(n2cc(F)c(=O)[nH]c2=O)C(NC(=O)OCc2ccccc2)C(O)C1O` (stereo not drawn), the TGI in [2], in assay [4], in [5], in assay [6] and in assay [8] was over 100 µM throughout.

In assay [1], `N#C/C(=C\Nc1ccccn1)C(=O)c1ccco1` registered a TGI of over 100 µM.

As for `Cc1cc(Oc2cnc(=O)[nH]c2)cs1`, the TGI in assay [1] was over 100 µM.

For the molecule `O=c1cc(-c2ccccc2)nc(/C=C(\O)c2ccncc2)n1-c1ccccc1`, the TGI in [2], in [3], in assay [4], in assay [5], in assay [6] and in [7] was over 100 µM throughout. The same molecule had a TGI in assay [8] of over 100 µM.

For the molecule `CCCCCCCCC(O)C#CC(N)=O` (stereo not drawn), the TGI in assay [2] is 24.4 µM; in [3], 26 µM; in assay [4], 23.3 µM; in assay [5], 17.9 µM; in assay [6], 35.1 µM; in [7], 21.8 µM. Moreover, the TGI in assay [8] stood at 20.3 µM; in assay [9] it was 29.8 µM.

As for `COc1ccc(OC)c(NCC#N)c1`, the TGI in assay [2], in [3], in [5], in [6], in [8] and in [9] was over 100 µM each time.

With `O=c1nc(NC(c2ccccc2)(c2ccccc2)c2ccccc2)ccn1CCO`, the TGI in [3], in assay [4], in [5], in assay [6] and in assay [7] was over 100 µM each time.

Regarding `COc1cc(C=O)c(-c2cc3c(cc2C2(C)OCCS2)OCO3)c(OC)c1OC` (stereo not drawn), the TGI in assay [4] was 54 µM; in [5] it was 71.8 µM; in [6] it was 9.17 µM; in assay [7], 50.7 µM; in assay [8], 36.8 µM.

`Cc1ccc(-c2cc(=O)c3cc(C)c(C)c(C(=O)O)c3o2)cc1`: the TGI in assay [2], in [4], in assay [5], in assay [6], in [7] and in [8] was over 100 µM throughout. The same molecule returned a TGI in assay [9] of over 100 µM.

For `Cc1ccc(C(=O)N2CCN(C(=O)c3ccc(C)cc3)c3ccccc32)cc1`, the TGI was over 100 µM in assay [2]; over 100 µM in [3]; over 100 µM in assay [4]; 18 µM in assay [5]; over 100 µM in assay [1]; over 32.6 µM in assay [6]. Further, the TGI in assay [7] was over 100 µM; in assay [8], over 35.8 µM.

On to `CSc1nc(SC)c2c(C(N)=S)[nH]nc2n1`, for which the TGI in assay [2] is 91.7 µM; in assay [4], over 100 µM; in [5] it was 83 µM; in assay [6], 85 µM; in [7] it was over 100 µM; in assay [8] it was 98.3 µM. The same molecule registered a TGI in assay [9] of 93.7 µM.

With `Cc1ccc(C(=O)N2c3ccccc3N(C)n3cccc3C2CC(=O)O)cc1` (stereo not drawn), the TGI in assay [2], in assay [4], in assay [5], in assay [6], in assay [7] and in [8] was over 100 µM each time.

On to `O=C1C2CC=CCC2C(=O)C12CCc1ccccc12` (stereo not drawn), for which the TGI in assay [2], in assay [3], in assay [4], in assay [6], in [7] and in assay [8] was over 100 µM each time.

With `COC(=O)c1ccc(NC(=O)c2cc(OC)c(OC)c(OC)c2)cc1`, the TGI in assay [2] is over 100 µM; in assay [3] it was over 100 µM; in [4], over 100 µM; in assay [5] it was 0.706 µM; in assay [6] it was over 100 µM; in [7] it was over 100 µM. In [8], the TGI is over 100 µM.

Take `CC1=C(C(=O)Nc2ccc([N+](=O)[O-])cc2)C(c2ccccc2O)C(C(=O)Nc2ccc([N+](=O)[O-])cc2)=C(C)N1`: the TGI worked out at 64.4 µM in assay [2]; 48.7 µM in assay [4]; 44.8 µM in [5]; 35.8 µM in [6]; 57.8 µM in assay [7]; 47.1 µM in assay [8]. This molecule also displayed a TGI in [9] of 36.6 µM.

As to `COc1ccc2nc3cc([N+](=O)[O-])ccc3c(NCCCN(CCO)CCO)c2c1`, in [1], the GI50 is 3.47 µM and the TGI was found to be 8.93 µM.

As to `CN(C)C(=S)/N=c1\ss/c(=N\C(=S)N(C)C)n1-c1ccc(Cl)cc1`, the TGI in [4], in assay [6] and in assay [8] was over 100 µM each time.

For `CCOc1ccccc1N1C(=O)C(=O)C(c2nc3ccccc3o2)/C(=N\N)C1=O` (stereo not drawn), the TGI in assay [2], in [4], in assay [5], in assay [6], in [7] and in assay [8] was over 100 µM each time.
